Assay results reported in the CheMixHub viscosity set.
± gives the uncertainty stated by the source.

Assay: xn = mol fraction of the nth substance listed

Cl.N[C@@H](CS)C(=O)O.O + O
viscosity [mPa·s], 101 kPa
Settings | 303.15 K | 308.15 K | 313.15 K | 318.15 K | 323.15 K
x1 = 0.01 | 0.8529 ± 0.007 | 0.7892 ± 0.0065 | 0.7275 ± 0.0061 | 0.6712 ± 0.0057 | 0.6181 ± 0.0053
x1 = 0.0122 | 0.9644 ± 0.048 | – | 0.795 ± 0.041 | – | 0.6742 ± 0.035
x1 = 0.02 | 1.126 ± 0.0089 | 1.023 ± 0.0082 | 0.9082 ± 0.0074 | 0.8248 ± 0.0068 | 0.769 ± 0.0064
x1 = 0.0272 | 1.2 ± 0.058 | – | 0.9836 ± 0.049 | – | 0.8276 ± 0.042
x1 = 0.04 | 1.506 ± 0.012 | 1.356 ± 0.01 | 1.273 ± 0.0099 | 1.112 ± 0.0088 | 1.018 ± 0.0081
x1 = 0.0463 | 1.591 ± 0.075 | – | 1.288 ± 0.062 | – | 1.084 ± 0.053
x1 = 0.0579 | 1.877 ± 0.087 | – | 1.508 ± 0.071 | – | 1.244 ± 0.06
x1 = 0.0714 | 2.27 ± 0.1 | – | 1.797 ± 0.083 | – | 1.49 ± 0.07
x1 = 0.08 | 2.486 ± 0.018 | 2.237 ± 0.017 | 1.968 ± 0.015 | 1.785 ± 0.014 | 1.594 ± 0.012
x1 = 0.0871 | 2.805 ± 0.13 | – | 2.191 ± 0.1 | – | 1.711 ± 0.08
x1 = 0.1 | 3.391 ± 0.025 | 2.955 ± 0.022 | 2.572 ± 0.019 | 2.293 ± 0.017 | 2.048 ± 0.015
x1 = 0.1057 | 3.602 ± 0.16 | – | 2.783 ± 0.13 | – | 2.239 ± 0.1
x1 = 0.11 | 3.97 ± 0.029 | 3.387 ± 0.025 | 2.951 ± 0.022 | 2.575 ± 0.019 | 2.336 ± 0.018
x1 = 0.12 | 4.627 ± 0.034 | 3.883 ± 0.029 | 3.387 ± 0.025 | 2.93 ± 0.022 | 2.67 ± 0.02
x1 = 0.1281 | 5.207 ± 0.22 | – | 3.69 ± 0.16 | – | 2.906 ± 0.13
x1 = 0.13 | 5.349 ± 0.039 | 4.451 ± 0.033 | 3.878 ± 0.029 | 3.35 ± 0.025 | 3.052 ± 0.023
x1 = 0.14 | 6.119 ± 0.043 | 5.101 ± 0.037 | 4.426 ± 0.033 | 3.833 ± 0.029 | 3.483 ± 0.026
x1 = 0.15 | 6.915 ± 0.047 | 5.842 ± 0.041 | 5.027 ± 0.037 | 4.408 ± 0.033 | 3.963 ± 0.029
x1 = 0.1558 | 7.415 ± 0.29 | – | 5.463 ± 0.23 | – | 4.309 ± 0.19
x1 = 0.16 | 7.706 ± 0.051 | 6.524 ± 0.045 | 5.678 ± 0.041 | 5.017 ± 0.037 | 4.492 ± 0.033
x1 = 0.17 | 8.459 ± 0.055 | 7.218 ± 0.049 | 6.372 ± 0.044 | 5.719 ± 0.041 | 5.066 ± 0.037
x1 = 0.18 | 9.134 ± 0.059 | 8.014 ± 0.053 | 7.104 ± 0.049 | 6.301 ± 0.044 | 5.685 ± 0.041
x1 = 0.19 | 9.972 ± 0.064 | 8.826 ± 0.058 | 7.864 ± 0.053 | 7.002 ± 0.048 | 6.342 ± 0.044
x1 = 0.1903 | 9.687 ± 0.36 | – | 7.875 ± 0.31 | – | 6.354 ± 0.26

NCCCN + O
viscosity [mPa·s]
Settings | 303.15 K | 308.15 K | 313.15 K | 318.15 K | 323.15 K
101 kPa, x1 = 0.05 | 1.58 ± 0.01 | 1.38 ± 0.009 | 1.227 ± 0.008 | 1.097 ± 0.0072 | –
101 kPa, x1 = 0.0966 | 2.754 ± 0.017 | 2.355 ± 0.015 | 2.03 ± 0.013 | – | –
101 kPa, x1 = 0.1458 | 4.36 ± 0.027 | 3.619 ± 0.023 | 3.031 ± 0.019 | – | –
101 kPa, x1 = 0.199 | 6.289 ± 0.037 | 5.088 ± 0.032 | 4.188 ± 0.026 | – | –
101 kPa, x1 = 0.2473 | 7.568 ± 0.044 | 6.055 ± 0.037 | 4.93 ± 0.031 | – | –
101 kPa, x1 = 0.2961 | 8.219 ± 0.048 | 6.535 ± 0.04 | 5.313 ± 0.033 | – | –
101 kPa, x1 = 0.3465 | 7.991 ± 0.047 | 6.401 ± 0.04 | 5.22 ± 0.033 | – | –
101 kPa, x1 = 0.3974 | 7.438 ± 0.045 | 6.022 ± 0.038 | 4.946 ± 0.032 | – | –
101 kPa, x1 = 0.4955 | 5.878 ± 0.038 | 4.832 ± 0.032 | 4.038 ± 0.027 | – | –
101 kPa, x1 = 0.5995 | 4.307 ± 0.029 | 3.644 ± 0.025 | 3.127 ± 0.021 | – | –
101 kPa, x1 = 0.6969 | 3.224 ± 0.023 | 2.779 ± 0.02 | 2.419 ± 0.017 | – | –
101 kPa, x1 = 0.8006 | 2.501 ± 0.018 | 2.177 ± 0.016 | 1.921 ± 0.014 | – | –
101 kPa, x1 = 0.8936 | 1.997 ± 0.015 | 1.762 ± 0.013 | 1.573 ± 0.012 | – | –
101.33 kPa, x1 = 0.0518 | 1.637 ± 0.011 | 1.437 ± 0.01 | 1.267 ± 0.009 | 1.127 ± 0.008 | 1.008 ± 0.007
101.33 kPa, x1 = 0.1 | 2.991 ± 0.021 | 2.534 ± 0.018 | 2.174 ± 0.015 | 1.887 ± 0.013 | 1.65 ± 0.012
101.33 kPa, x1 = 0.1498 | 4.882 ± 0.035 | 4.012 ± 0.029 | 3.345 ± 0.024 | 2.827 ± 0.02 | 2.417 ± 0.018
101.33 kPa, x1 = 0.2004 | 6.762 ± 0.047 | 5.446 ± 0.04 | 4.467 ± 0.033 | 3.714 ± 0.027 | 3.132 ± 0.023
101.33 kPa, x1 = 0.2498 | 7.872 ± 0.056 | 6.309 ± 0.047 | 5.128 ± 0.039 | 4.236 ± 0.032 | 3.548 ± 0.027
101.33 kPa, x1 = 0.2734 | 8.088 ± 0.059 | 6.473 ± 0.048 | 5.268 ± 0.04 | 4.351 ± 0.033 | 3.646 ± 0.028
101.33 kPa, x1 = 0.2984 | 8.108 ± 0.06 | 6.502 ± 0.049 | 5.297 ± 0.041 | 4.379 ± 0.034 | 3.662 ± 0.029
101.33 kPa, x1 = 0.3248 | 7.918 ± 0.06 | 6.364 ± 0.049 | 5.199 ± 0.041 | 4.307 ± 0.034 | 3.619 ± 0.029
101.33 kPa, x1 = 0.3502 | 7.614 ± 0.059 | 6.155 ± 0.048 | 5.027 ± 0.04 | 4.189 ± 0.033 | 3.518 ± 0.028
101.33 kPa, x1 = 0.3766 | 7.121 ± 0.056 | 5.774 ± 0.047 | 4.754 ± 0.039 | 3.972 ± 0.032 | 3.354 ± 0.027
101.33 kPa, x1 = 0.4041 | 6.681 ± 0.054 | 5.464 ± 0.045 | 4.509 ± 0.037 | 3.787 ± 0.031 | 3.211 ± 0.027
101.33 kPa, x1 = 0.4467 | 5.911 ± 0.05 | 4.871 ± 0.042 | 4.068 ± 0.035 | 3.445 ± 0.029 | 2.935 ± 0.025
